{
  "source": "patent US8617560B2",
  "about": "“Peptides for vaccination against human CMV” (priority 1999, dated 2013)",
  "origin": "cited, not measured here",
  "test_system": "cytomegaloviruses",
  "settings": "background statement, Lutz Schneider 1991",
  "data": [
    {"compound": "O=C(O)P(=O)(O)O", "note": "[Foscarnet]", "values": [
      {"measurement": "effect on cytomegaloviruses", "result": "virostatic effect"}
    ]}
  ]
}
